Among the data in ChEMBL document CHEMBL1157539, “Thousands of chemical starting points for antimalarial lead identification” (Nature, 2010) are XC50 values, retold here.

SMILES strings stand for the structures.

In the test the test system is Plasmodium falciparum. Nature of the test: GSK_TCMDC: Inhibition of Plasmodium falciparum 3D7 in whole erythrocytes, using parasite LDH activity as an index of growth. It counts as functional, organism-based. To be noted: Plasmodium falciparum, 3D7.
`Cc1cc(NC(=O)c2ccco2)ccc1OC1CCN(Cc2ccccc2)CC1` had an XC50 of 0.531 µM.
The figure for `Cc1nc2ccc(-c3nc4cc(N)ccc4[nH]3)cc2[nH]1` is 0.233 µM.
Turning to `O=C(N[C@@H](Cc1ccccc1)[C@H](O)CNCCC(F)(F)F)c1cccc(OCC2CC2)c1`, the XC50 was 0.616 µM.
`COc1ccc(CCNc2ccnc3cc(Cl)ccc23)cc1OC` returned an XC50 of 0.891 µM.
In turn, `O=C(CCCCCNC(=O)c1ccc(O)c(-c2ccc(Cl)c(Cl)c2)c1)NCCN1CCOCC1` showed an XC50 of 0.83 µM.
In the case of `CCOC(=O)CCCN1C(=O)CN=C(c2ccccc2)c2cc(Cl)ccc21` it was 0.778 µM; in that of `Cc1c(CCc2cccc(F)c2F)[nH]c2ccccc2c1=O`, 0.822 µM.
Consider `Nc1nc(N)c2c(ccc3c2ccn3Cc2ccc(OCc3ccccc3)cc2)n1`, for which the XC50 was determined as 0.933 µM.
In the case of `O=C(Nc1ccc(Cl)c(Cl)c1)N[C@H]1CCN(CCCCCNC(=O)C2CC2c2ccc(Cl)c(Cl)c2)C1` (some centres not stated) it was 1.03 µM; in that of `CC1(C)N=C(N)N=C(N)N1c1cc(Cl)c(Cl)cc1Cl`, 0.181 µM.
The figure for `CN(C)CCNC(=O)c1cccc(-c2cnc3ccc(NCc4ccc(Cl)c(Cl)c4)nn23)c1` is 0.698 µM.
The figure for `CC(C)CCN1CCC(Oc2ccc(NC(=O)c3ccco3)cc2Cl)CC1` is 0.676 µM.
In turn, `CCN1CCN(c2cc(C)c3cc(NC(=O)c4ccc(N(CC)CC)cc4)ccc3n2)CC1` yielded an XC50 of 0.962 µM.
Compound `Cc1cccn2c(=O)c3cc(C(=O)NC(C)c4ccccc4)c(=N)n(CCN4CCOCC4)c3nc12` (configuration not stated) had an XC50 of 0.823 µM.
The compound `COc1cc(C)ccc1S(=O)(=O)N1CCCCC(c2ccc(C(F)(F)F)cc2)=N1` returned an XC50 of 0.775 µM.
In the case of `O=C(Nc1cccc(C(F)(F)F)c1)NC1CCN(c2ccnc3ccccc23)CC1` it was 0.988 µM.
Turning to `Cc1ccccc1N1CCN(c2ccc(C(=O)Nc3ccccc3)cc2)CC1`, the XC50 came to 0.723 µM.
In turn, `CCOc1ccc(C(=O)Nc2cc(Br)c3c(c2)CNCC3)cc1Cl` yielded an XC50 of 1.04 µM.
With `O=C(NC1CC1)c1cnc(N2CCC(COc3cccc(F)c3)CC2)c(Cl)c1`, the XC50 came to 1.2 µM.
The figure for `COc1ccc(-c2ccc(CNC(=O)c3cccc(C#N)c3)c(F)c2)cc1CN1CCCN(C)CC1` is 0.804 µM; for `O=C(c1ccc(Cl)cc1)C1CCN(CCCOc2ccc3c(c2)CCNCC3)CC1` it is 1.15 µM; for `CCCCCCCCCCS(=O)(=O)N[C@H](COCc1cccc(Oc2ccccc2)c1)COP(=O)(O)OC` it is 1.02 µM.
The figure for `CN1CC[C@@H](Oc2cc(C(=O)NCc3ccc(Cl)c(Cl)c3)ccc2C(F)(F)F)C1` is 1.25 µM.
Compound `Cc1noc(C)c1CN1CCCN(c2ccc3c(c2)CCN(Cc2ccc(-c4ncc[nH]4)cc2)CC3)CC1` came in with an XC50 of 0.864 µM.
As to `CC(=O)Nc1ccc(C(=O)NC2CCN(c3ccnc4cc(Cl)ccc34)CC2)cc1`, the XC50 stood at 0.357 µM.
The figure for `COc1ccc(Nc2nccc(-c3ccc4c(-c5ccsc5)cnc(N)c4c3)n2)cc1` is 0.236 µM.
In the case of `CCOC(=O)C1=C(C)NC2=C(C(=O)C(C(=O)OC)C(C)C2)C1c1cc(Br)c(OCC)c(OC)c1` (configuration not stated), the XC50 was determined as 0.701 µM.
Consider `COc1ccccc1C1CCN(C2CCC(NC(=O)c3ccc4[nH]c(-c5ccc(C)cc5)nc4c3)CC2)CC1` (configuration not stated), for which the XC50 was determined as 0.308 µM.
The figure for `CC(C)Nc1nc(NCCc2c[nH]cn2)nc(Nc2ccc(Oc3ccccc3)cc2)n1` is 0.887 µM; for `Cc1nc2ccc3ccc(CNc4ccc(C(=O)N[C@@H](CCC(=O)O)C(=O)N[C@@H](Cc5cccs5)C(=O)O)c(F)c4)cc3c2c(=O)[nH]1` it is 0.787 µM.
Compound `O=C(c1ccc(-c2ccc(Cl)cc2)o1)N1CCc2cc3nccc(N4CCN5CCC[C@H]5C4)c3cc21` gave an XC50 of 0.17 µM.
The figure for `COc1cc2ccccc2c(OC)c1CNCCCCCCNCc1c(OC)cc2ccccc2c1OC` is 0.988 µM.
The figure for `CC(C)CC(C)NC(=O)C1Cc2c([nH]c3cc(Cl)ccc23)C2(CCN(CCc3ccccc3)CC2)N1` (configuration not stated) is 0.815 µM; for `CCCCCCN(CCCCCC)CC(O)c1cc(-c2ccc(Cl)cc2)nc2c(C)cc(C)cc12` (configuration not stated) it is 0.0673 µM.
The figure for `CC(C)COc1cc(C(=O)Nc2cnc3ccccc3c2)ccc1[N+](=O)[O-]` is 0.776 µM; for `O=C(Nc1cccc(C(F)(F)F)c1)c1ccc(S(=O)(=O)NC2CCN(CC3CCCCC3)CC2)cc1` it is 1.16 µM; for `CC(C)(CC1CCCCC1)NC(=O)[C@H](CC1CCCCC1)Nc1ccc(C#N)c2ccccc12` it is 0.592 µM.
In turn, `O=C(Nc1ccc2c(c1)CCC2)c1nc(N2CCN(c3ccncc3)CC2)ccc1Cl` had an XC50 of 1.38 µM.
In the case of `N=C(N)NN=Cc1c2ccccc2c(Cl)c2ccc(Cl)cc12`, the XC50 turned out to be 0.225 µM.
The figure for `CN(c1ccc2c(c1)nc(NCc1ccccc1)n2C)c1ccnc(Nc2ccc(CS(C)(=O)=O)cc2)n1` is 0.841 µM.
The figure for `N#CCCN1CCN(Cc2ccc(-c3ccc(-c4nc5cc(F)ccc5[nH]4)s3)cc2)CC1` is 0.659 µM; for `Cc1nc(C)c(-c2ccc(Oc3ccc(OC(F)(F)F)cc3)cc2)c(OC(=O)c2ccccc2)c1Cl` it is 0.182 µM.
In turn, `CC(C)c1ccc(NC(=O)c2ccc(C(=O)NC3CCN(Cc4ccsc4)C3)cc2)cc1` (configuration not stated) returned an XC50 of 1.03 µM.
The figure for `COc1ccccc1C1CCN(C2CCC(NC(=O)/C=C/c3cccc(Cl)c3)CC2)CC1` (configuration not stated) is 1.03 µM; for `Cc1ccc2c(Cc3cnc(N)nc3N)cc(C)c(N)c2n1` it is 1.42 µM; for `O=C(Nc1ccc(-c2nc3ccccc3[nH]2)cc1)c1ccc(Cl)c([N+](=O)[O-])c1` it is 0.802 µM.
In the case of `Cc1ccn2c(N(Cc3ccccc3)C(=O)c3ccc(Cl)c(Cl)c3)c(-c3ccccc3)nc2c1` it was 0.987 µM.
`CCOC(=O)NC1=NC(=N)N(OCc2ccc(Cl)c(Cl)c2)C(C)(C)N1`: the XC50 came out at 0.0407 µM.
The figure for `Cc1ccc2[nH]c(-c3cc(-c4cccc(CCN5CCOCC5)c4)cnc3N)nc2c1` is 0.17 µM; for `COc1cccc(C2(c3cccc(OC)c3)N=C(N)N(CCCc3ccccc3)C2=O)c1` it is 0.26 µM.
Regarding `C=CCNC(CCCCC)c1ccc(OCCOc2ccc(C(CCCCC)NCC=C)cc2)cc1` (configuration not stated), the XC50 came to 0.567 µM.
In the case of `CCN(CC)CCCC(C)N=c1cc(C=Cc2ccccc2Cl)[nH]c2cc(Cl)ccc12` (configuration not stated) it was 0.805 µM; in that of `C#CCNCc1ccc(-c2cccc(-c3nc4cccc(C)c4[nH]3)c2)cc1`, 0.818 µM; in that of `Cc1cccc2nc(-c3ccc(-c4ccc(CN5CCN(C6CCN(C)CC6)CC5)cc4)cc3)[nH]c12`, 0.1 µM.
Compound `CNCCc1c(O)ccc2ccccc12` registered an XC50 of 0.804 µM.
With `Cc1c[nH]c(-c2cccc(C(=O)NC3CCC(CCN4CCc5ccc(C#N)cc5CC4)CC3)c2)n1` (configuration not stated), the XC50 was 0.301 µM.
The figure for `CCOc1ccc2nc(NC(=O)c3csnn3)sc2c1` is 0.476 µM.
In the case of `COc1cc2nc(N3CCC(CNC(=O)c4ccc(-c5ccc(-c6noc(C)n6)cc5)cc4)CC3)nc(N)c2cc1OC` it was 0.139 µM; in that of `Cc1ncccc1-c1cccc2c(NC(=O)Nc3ccc4nccc(N5CCN(C)CC5)c4c3)cccc12`, 0.632 µM; in that of `O=C(Cc1cccc(O)c1)NCC(Cc1ccc(O)cc1)c1ccccc1` (configuration not stated), 0.643 µM.
Consider `O=C(NCCNc1ccnc(Nc2ccc(F)cc2)n1)c1cc2ccccc2s1`, for which the XC50 amounted to 0.755 µM.
In the case of `Cc1c(C(=O)C2CC2CN2CCC(N3CCCC3)CC2)sc2ccccc12` (configuration not stated) it was 1.4 µM; in that of `N#Cc1cncc(-c2nc3c(N4CCC(N5CCCC5)CC4)cccc3n2CCNCc2ccccc2)c1`, 0.874 µM.
With `O=C(Nc1ccc(N2CCNCC2)nc1)c1oc(-c2ccccc2)nc1C(F)(F)F`, the XC50 amounted to 0.981 µM.
In the case of `COc1cc(C(=O)NC2CC(C)(C)N(C)C(C)(C)C2)ccc1-c1cc2cc(Cl)c(Cl)cc2[nH]1` it was 1.14 µM; in that of `N#Cc1ccccc1Sc1ccccc1C(=O)Nc1ccc2ccccc2n1`, 0.507 µM; in that of `CN1CC[C@@H](Oc2cc(NC(=O)Nc3ccc(Cl)c(C(F)(F)F)c3)ccc2Cl)C1`, 0.994 µM.
`CN(C)c1ccc(C=CC(=O)NC(=O)c2ccccc2O)cc1` displayed an XC50 of 0.227 µM.
The figure for `Cc1cc(N[C@@H](Cc2ccccc2)C(=O)NCCOc2ccccc2)nc(NCCc2cccs2)n1` is 0.997 µM; for `CC[C@H]1CN2CC[C@@H]1C[C@H]2[C@H](O)c1cc(N2CCOCC2)nc2ccc(OC)cc12` it is 0.118 µM; for `O=C1CCCN1CCCNCc1cccc(-c2ccc(-c3nc4cc(C(F)(F)F)ccc4[nH]3)cc2)c1` it is 0.3 µM.
In the case of `Cn1c(/C=C/C(=O)NC2CCC(CCN3CCc4ccc(C#N)cc4CC3)CC2)cc2ccccc21` (configuration not stated) it was 0.733 µM; in that of `CN(C)CCCOc1cccc(CCNCc2cccc(Oc3ccc(Cl)cc3)c2)c1`, 1.01 µM.
For the compound `CCNC(=O)Nc1ccc(-c2ccc(-c3nc4cccc(C)c4[nH]3)s2)cc1`, the XC50 is 1.07 µM.
The figure for `COc1ccc2nccc([C@@H](O)CN3CCC(NCc4[nH]c5ccccc5c4F)CC3)c2c1` is 0.247 µM; for `O=C(Nc1ccc2c(c1)OCO2)NC1CCN(c2ccnc(NCc3ccc(F)cc3)n2)CC1` it is 0.943 µM; for `CCN(CCCN1CCCCC1)c1cc(C)nc(Nc2cc(Cl)ccc2C)n1` it is 0.633 µM.
Compound `O=C(Nc1cccc(-c2cccc(-c3nc4ccccc4[nH]3)c2)c1)c1csnn1` had an XC50 of 0.921 µM.
In the case of `O=C(/C=C/c1ccc(Cl)c(Cl)c1)NCCCCCN1CCC(NC(=O)NC2CCCCC2)CC1` it was 0.557 µM; in that of `COc1cc2nccc(Nc3ccc(OCc4ccccc4)cc3)c2cc1OC`, 0.203 µM; in that of `CN(C)CCCNCc1ccc(-c2ccc(C(F)(F)F)cc2)cc1`, 0.873 µM.
Regarding `O=C(Nc1cccc(-c2ccc(-c3nc4cc(F)ccc4[nH]3)cc2)c1)c1ccncc1`, the XC50 was found to be 0.278 µM.
The figure for `COc1ccc(-n2nc(C)c3c2NC(=O)CC3c2ccccc2OCc2ccc(F)cc2)cc1` (configuration not stated) is 0.855 µM; for `COc1cc(OCCCCCCON2C(=N)N=C(N)NC2(C)C)cc(OC)c1OC` it is 0.0032 µM.
In the case of `O=c1[nH]ccc2nc(N[C@@H]3CCNC3)nc(Nc3ccc4c(c3)S(=O)(=O)CC4)c12`, the XC50 was 0.377 µM.
The figure for `CCCCCC1c2[nH]c3ccccc3c2CCN1C(=O)OCc1ccccc1` (configuration not stated) is 0.389 µM.
In the case of `Cc1cc(F)ccc1Nc1nc(N(C)c2ccccc2)c2cc(OCCN(C)C)ccc2n1` it was 0.786 µM.
